According to US7332489B2, “Methods and compositions of novel triazine compounds” (Reddy US Therapeutics, Inc., priority 2003, dated 2008):
Where two headings read alike, the source gives them in different places.

Key:
[1] = system: TNF-α induced IL-6; assay: TNF-α-induced IL-6 production determined by IL-6 ELISA; type: cell-based; conditions: for % IL6 production compare to TNF stimulation of IL6 (100%), HAEC, IL6, @ 5 uM / % IL6 production compare to TNF stimulation of IL6 (100%), Compds tested @ 10 uM HAEC, IL6: TNF stimulated; for % IL6 production compare to TNF stimulation of IL6 (100%), HAEC, IL6, @ 5 uM: compound 5 uM (bracketed value); for % IL6 production compare to TNF stimulation of IL6 (100%), Compds tested @ 10 uM HAEC, IL6: compound 10 uM; for activity at 10 µM / inhibition at 10 µM: Homo sapiens
In short: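 Human aortic endothelial cells grown to ≥90% confluence, then treated with compounds and stimuli in serum-free medium with 0.2% albumin. Secreted IL-6 in collected media measured by sandwich ELISA (2 ug/ml capture, 200 ng/ml biotinylated detection antibody, streptavidin-HRP), read at 450 nm.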

[2] = system: Human aortic smooth muscle cells; conditions: 24 h
Procedure: Human aortic smooth muscle cells (Clonetics) were used. Cells were grown in basal medium containing 5% fetal bovine serum supplemented with growth factors, basic fibroblast growth factor, epidermal growth factor and insulin. […] The cells were then serum starved for 24 h to induce quiescence. Fresh growth medium containing no compound or 10 μM compound was then added and further incubated for 24 h. Cell number was determined by using a cell proliferation assay kit (Celltiter96 AQueous from Promega).

[3] = system: endothelial cells; assay: Toxicity to endothelial cells when AGE stimulated; type: cell-based
Procedure: In general, to determine if there is cytotoxic activity associated with a compound, cells of a particular type, in a growing stage or a quiescient stage, are treated with the compound of interest. Various parameters of cell death or cessation are used to measure the effects of the compound. For example, the amount of nucleic acid or protein synthesis can be measured or visual observation of the state of the cells, such as release from the substrate, can be used to measure the state of the cells.
All treatments, compound-added and controls were carried out in serum free media containing 0.2% albumin. Media from all conditions were collected and used for IL-6 ELISA.

[4] = system: G-HSA induced IL-6; assay: AGE-induced inflammatory response determined by IL-6 ELISA (glycated human serum albumin stimulus); type: cell-based; conditions: 24 h, read-out: % IL6 production compare to AGE stimulation of IL6 (100%), Compds tested @ 10 uM HAEC, IL6
Procedure: Human aortic endothelial cells (HAEC, Clonetics) were cultured according to manufacturer in growth medium (Clonetics): basal medium containing human epidermal growth factor, hydrocortisone, vascular endothelial growth factor, heparin binding growth factor-B, long R3-insulin-like growth factor-1, ascorbic acid, gentamicin/amphotericin and 5% FBS. These cell were allowed to reach at least 90% confluency before subjected to experimental treatments. Glycated human serum albumin (G-HSA) was from US Biologicals. Tumor necrosis factor α was from R&D Systems.
Endothelial cells were treated with control medium or medium containing 10 to 100 ng/ml TNF-α or 300 μg/ml glycated-HAS (treated cells or treatments) for 24 hrs, in control and compound-added duplicates, containing 10 μM compound. All treatments, compound-added and controls were carried out in serum free media containing 0.2% albumin. Media from all conditions were collected and used for IL-6 ELISA.
IL-6 ELISA was carried out using human IL-6 DuoSet ELISA development kit as described by manufacturer (R&D Systems). Mouse anti-human Il-6 was used as the capture antibody (2 ug/ml) and biotinylated goat anti-human IL-6 (200 ng/ml) was used as the detection antibody. Culture media were incubated with capture antibody (in 96 well) for 2 h at room temperature. […] Color development was read at 450 nm in a Microplate reader.

[5] = system: cells; assay: Cytotoxicity/Lactate Dehydrogenase assay; type: cell-based; conditions: toxic or cause cell death; concentrations (uM) given
Procedure: An appropriate number of cells are plated in four 96-well plates, one plate for “day 0” and three plates for days 1-3. Cells are treated with at least one compound of the present invention in varying concentrations with and without the apoptosis inducer cisplatin (2 μM) (“+cis” or “-cis”). Unteated cells are also assayed with and without cisplatin. After transfection, the plates are incubated at 37° C. overnight.
An appropriate number of cells are plated in four 96-well plates, one plate for “day 0” and three plates for days 1-3. Cells are treated with at least one compound of the present invention in varying concentrations. The negative control cells have normal media conditions, a duplicate set of wells is treated with the composition in which the compound is provided, but there is no added compound and the positive control cells are treated with the apoptosis inducer cisplatin (2 μM). All of the cells are transfected with a vector having a promoter that is responsive to apoptosis conditions. When apoptosis occurs, the promoter is turned on and the lactic dehydrogenase gene is activated and the enzyme protein is made and active. Activity is easily detected with a color change. After transfection, the plates are incubated at 37° C. overnight.
About 8 mls of warmed alpha MEM LDH lysis buffer (2% Triton X100) and about 8 mls of culture media (1/2 dilution) are combined. Two 96-well v-bottom plates are prepared, one labeled “lysis” and one labeled “supernatant.” To lyse the cells, about 200 μl Alpha MEM lysis buffer (diluted 1/2) is added to one test plate from which the supernatant has been removed and added to the plate labeled supernatant. After mixing, about 200 μl of lysed cells are transferred to the lysis plate. Both the lysis and supernatant plates are centrifuged at about 1600 rpm for about 10 min. After centrifugation, about 100 μl of both the supernatant or lysate is transferred to corresponding 96-well flat-bottomed plates.
The assay for cytotoxicity uses the Cytotoxicity Detection Kit (LDH) from Roche Diagnostics Corp. (Indianapolis, Ind.). Using the directions provided, the dye solution is mixed and added each well of the lysate and supernatant plate and incubated for up to 20-25 min at 15-25° C. in the dark.

[6] = endothelial cells, AGE stimulated

## CN(c1nc(Nc2ccc(OCc3ccccc3)c(Cl)c2)nc(NC2CCCCCC2)n1)C1CCNCC1
[1]
  Inflammation Data, activity in words at 1 uM: not active
[1]; 5 uM
  Inflammation Data, cell death at 5 uM: 50%
[1]; 10 uM
  Inflammation Data, cell death at 10 uM: total cell death
[2]
  Proliferation Data, cell death: celldeath at 10 uM
  Proliferation Data, cell morphology (rounding, blunting, morphology change): cell morphologychange at 7.5 uM

## COc1ccc(Nc2nc(NC3CCCCCC3)nc(NC3CCN(Cc4ccccc4)CC3)n2)cc1Cl [Compound 134, N-(1-Benzyl-piperidin-4-yl)-N′-(3-chloro-4-methoxy-phenyl)-N″-cycloheptyl-[1,3,5]triazine-2,4,6-dianmine]
[1]
  % IL6 production compare to TNF stimulation of IL6 (100%), HAEC, IL6, @ 5 uM: 55%
  % IL6 production compare to TNF stimulation of IL6 (100%), Compds tested @ 10 uM HAEC, IL6: total cell death
[3]; [6]
  Toxic (AGE-treated): toxic

## COc1ccc(Nc2nc(NCCCCCO)nc(N(C)C3CCNCC3)n2)cc1Cl [Compound 109, 5-[4-(3-chloro-4-methoxy-phenylamino)-6-(methyl-piperidin-4-yl-amino)-1,3,5-triazin-2-ylamino]-pentan-1-ol]
[1]; 24 h, read-out: % IL6 production compare to TNF stimulation of IL6 (100%), Compds tested @ 10 uM HAEC, IL6
  activity at 10 µM: 40%
[1]; 24 h, read-out: Inhibition of TNF-induced IL6 production
  activity at 10 µM: 25 to 50%
other
  melting point: 101 °C

## CN1CCC(N(C)c2nc(Nc3ccc(O)c(Cl)c3)nc(NC3CCCCCC3)n2)CC1 [Compound 138, 2-Chloro-4-{4-cycloheptylamino-6-[methyl-(1-methyl-piperidin-4-yl)-amino]-[1,3,5]triazin-2-ylamino}-phenol]
[1]
  % IL6 production compare to TNF stimulation of IL6 (100%), Compds tested @ 10 uM HAEC, IL6: toxic
[3]
  Toxic (AGE-treated): toxic

## CN1CCC(N(C)c2nc(Nc3ccc(O)c(Cl)c3)nc(NC3CCCCCC3)n2)CC1 [drawing 1613]
[1]; human, 24 h, 10 µM
  Inflammation Data, cell death at 10 uM: total cell death
[2]
  Proliferation Data, cell morphology (rounding, blunting, morphology change): cell bluntingat 3 to 10 uM

## CCN1CCCC1CNc1nc(Nc2scc(C)c2C(N)=O)nc(NC2CCCCCC2)n1 (stereo not shown) [Compound 39, 2-[(4-(cycloheptylamino)-6-{[(1-ethyl-2-pyrrolidinyl)methyl]amino}-1,3,5-triazin-2-yl)-amino]-4-methyl-3-thiophenecarboxamide]
[4]; HAEC, 10 uM compound, AGE stimulation = 100%
  activity at 10 µM: 26%
[1]; 24 h, Table 5, second part, column 1, class = % of control IL6 production, read-out: Inhibition of TNF-induced IL6, production
  activity at 10 µM: 25 to 50%

## COc1ccc(Nc2nc(Nc3ccc(OC)c(Cl)c3)nc(N(C)C3CCN(C)CC3)n2)cc1Cl [Compound 121, N,N′-Bis-(3-chloro-4-methoxy-phenyl)-N″-methyl-N″-(1-methyl-piperidin-4-yl)-[1,3,5]triazine-2,4,6-triamine]
[1]
  % IL6 production compare to TNF stimulation of IL6 (100%), HAEC, IL6, @ 5 uM: [50 @ 5 uM, but some %
  % IL6 production compare to TNF stimulation of IL6 (100%), Compds tested @ 10 uM HAEC, IL6: total cell death @ 10 uM
[1]; human, 24 h, 5 µM
  toxicity @ 5 uM: toxicity (~20%)]
[5]
  Toxicity: Toxic by toxicityassay at 0.75 uM.Starts blunting by1 uM and rounding by5 uM
[3]
  Toxic (AGE-treated): toxic

## CCN1CCCC1CNc1nc(Nc2ccc(OC)c(Cl)c2)nc(NC2CN3CCC2CC3)n1 (stereo not shown) [Compound 148, N-(1-Aza-bicyclo[2.2.2]oct-3-yl)-N′-(3-chloro-4-methoxy-phenyl)-N″-(1-ethyl-pyrrolidin-2-ylmethyl)-[1,3,5]triazine-2,4,6-triamine]
[1]
  % IL6 production compare to TNF stimulation of IL6 (100%), HAEC, IL6, @ 5 uM: 60%
  % IL6 production compare to TNF stimulation of IL6 (100%), Compds tested @ 10 uM HAEC, IL6: total cell death
[3]
  Toxic (AGE-treated): toxic

## COc1ccc(Nc2nc(NC3CCCCCC3)nc(N(C)C3CCNCC3)n2)cc1F [Compound 159, N^2-Cycloheptyl-N^4-(3-fluoro-4-methoxy-phenyl)-N^6-methyl-N^6-piperidin-4-yl-1,3,5-triazine-2,4,6-triamine]
[1]
  % IL6 production compare to TNF stimulation of IL6 (100%), HAEC, IL6, @ 5 uM: total cell death @ 5 and 10
  % IL6 production compare to TNF stimulation of IL6 (100%), Compds tested @ 10 uM HAEC, IL6: total cell death @ 5 and 10
[3]
  Toxic (AGE-treated): toxic

## CN1CCC(N(C)c2nc(Nc3ccc4ccccc4c3)nc(NC3CC3)n2)CC1 [Compound 180, N-Cyclopropyl-N′-methyl-N′-(1-methyl-piperidin-4-yl)-N″-naphthalen-2-yl-[1,3,5]tri-azine-2,4,6-triamine]
[4]
  activity at 10 µM: 5%
[1]; 24 h, read-out: Inhibition of TNF-induced IL6 production, Table 7, first part
  inhibition at 10 µM: 85 to 100%
[1]; 24 h, read-out: Inhibition of TNF-induced IL6 production, Table 7, second part, column 1
  inhibition at 10 µM: 50 to 65%

## CN1CCC(N(C)c2nc(Nc3ccc(OCc4ccccc4)c(Cl)c3)nc(NC3CCCCCC3)n2)CC1
[1]
  Inflammation Data, activity in words at 1 uM: Not active
[1]; 5 uM
  Inflammation Data, activity in words at 5 uM: Not active
  Inflammation Data, cell death at 5 uM: 30%
[1]; 10 uM
  Inflammation Data, cell death at 10 uM: totaldeath
[2]
  Proliferation Data, cell death: no celldeath
  Proliferation Data, cell morphology (rounding, blunting, morphology change): cell morphologychange at 5 & 10 uM

## COc1ccc(Nc2nc(NC3CCCCCC3)nc(NC3CCNCC3)n2)cc1Cl [Compound 135, N^2-(3-chloro-4-methoxy-phenyl)-N^4-cycloheptyl-N^6-piperidin-4-yl-1,3,5-triazine-2,4,6-triamine]
[1]
  % IL6 production compare to TNF stimulation of IL6 (100%), HAEC, IL6, @ 5 uM: 60%
  % IL6 production compare to TNF stimulation of IL6 (100%), Compds tested @ 10 uM HAEC, IL6: total cell death
[3]; [6]
  Toxic (AGE-treated): toxic
